Source: ChEMBL document CHEMBL1201862, “PubChem BioAssay data set” (2004)
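How tested: cells in 96-well plates exposed to compound for 48 hours at five concentrations. GI50 is the concentration that inhibits growth by half.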 Calls of active or inactive are those of the source. No stated cut-off is given here; in the data, active = GI50 up to about 1.1 µM and inactive = higher.

Assays:
Assay in all cases: NCI-60 cell line screen, 48 h
786-0 = system: 786-0
A549 = system: A549
DU-145 = system: DU-145
HCT-116 = system: HCT-116
HOP-92 = system: HOP-92
M14 = system: M14
MDA-N = system: MDA-N
MOLT-4 = system: MOLT-4
NCI-H460 = system: NCI-H460
NCI/ADR-RES = system: NCI/ADR-RES
OVCAR-3 = system: OVCAR-3
OVCAR-8 = system: OVCAR-8
RPMI-8226 = system: RPMI-8226
SK-OV-3 = system: SK-OV-3
SNB-19 = system: SNB-19
SNB-75 = system: SNB-75
SW-620 = system: SW-620
TK-10 = system: TK-10
UO-31 = system: UO-31

SMILES	GI50 (786-0)	GI50 (A549)	GI50 (DU-145)	GI50 (HCT-116)	GI50 (HOP-92)	GI50 (M14)	GI50 (MDA-N)	GI50 (MOLT-4)	GI50 (NCI-H460)	GI50 (NCI/ADR-RES)	GI50 (OVCAR-3)	GI50 (OVCAR-8)	GI50 (RPMI-8226)	GI50 (SK-OV-3)	GI50 (SNB-19)	GI50 (SNB-75)	GI50 (SW-620)	GI50 (TK-10)	GI50 (UO-31)
CN(C)CCCNc1c2c(nc3ccc(Cl)cc13)CCCC2	10.5 µM (inactive)	16.8 µM (inactive)	13.9 µM (inactive)	6.03 µM (inactive)	10.3 µM (inactive)	13.8 µM (inactive)	13.5 µM (inactive)	4.12 µM (inactive)	9.93 µM (inactive)	18.1 µM (inactive)	14.8 µM (inactive)	12.8 µM (inactive)	7.59 µM (inactive)	23 µM (inactive)	19.1 µM (inactive)	15.7 µM (inactive)	9.75 µM (inactive)	15.2 µM (inactive)	10 µM (inactive)
Cc1c2c(c(C)c3c[n+](C)ccc13)Oc1ccccc1O2	6.62 µM (inactive)	1.84 µM (inactive)	22.9 µM (inactive)	22.8 µM (inactive)	34.8 µM (inactive)	18.2 µM (inactive)	18.6 µM (inactive)	3.02 µM (inactive)	3.4 µM (inactive)	> 100 µM (inactive)	3.17 µM (inactive)	6.05 µM (inactive)	1.88 µM (inactive)	23.5 µM (inactive)	1.74 µM (inactive)	5.28 µM (inactive)	16.9 µM (inactive)	50.9 µM (inactive)	94.4 µM (inactive)
COC(=O)C(Cc1ccccc1)NC(=O)c1ccc(CNC(=S)NCc2cccc(CNC(=S)NCc3ccccc3)c2)cc1 (stereo not drawn)	> 34.6 µM (inactive)	> 34.5 µM (inactive)	> 35.9 µM (inactive)	> 34 µM (inactive)	> 32 µM (inactive)	> 36 µM (inactive)	> 32.5 µM (inactive)	> 34 µM (inactive)	> 36.5 µM (inactive)	> 32.7 µM (inactive)	27.9 µM (inactive)	> 31.7 µM (inactive)	> 29.1 µM (inactive)	> 33.9 µM (inactive)	> 33.3 µM (inactive)	13.4 µM (inactive)	> 32.9 µM (inactive)	> 35.8 µM (inactive)	> 35.2 µM (inactive)
C(=N\c1ccc(-c2nc3ccccc3s2)cc1)/c1ccco1	83 µM (inactive)	56.6 µM (inactive)	> 100 µM (inactive)	82 µM (inactive)	39.5 µM (inactive)	93.5 µM (inactive)	72.9 µM (inactive)	29 µM (inactive)	40.3 µM (inactive)	60.8 µM (inactive)	43.6 µM (inactive)	64.9 µM (inactive)	41.6 µM (inactive)	83.8 µM (inactive)	> 100 µM (inactive)	85.5 µM (inactive)	> 100 µM (inactive)	2 µM (inactive)	62.4 µM (inactive)
COC(=O)C1(Cc2ccccc2C)Cc2ccc(C)cc2C1=O (stereo not drawn)	45.6 µM (inactive)	33.2 µM (inactive)	56.8 µM (inactive)	27.2 µM (inactive)	21.6 µM (inactive)	37.2 µM (inactive)	29.9 µM (inactive)	23.6 µM (inactive)	30.8 µM (inactive)	16.7 µM (inactive)	27.7 µM (inactive)	47.9 µM (inactive)	17 µM (inactive)	55.2 µM (inactive)	64.6 µM (inactive)	58.3 µM (inactive)	45 µM (inactive)	15.5 µM (inactive)	36.6 µM (inactive)
C[C@]12CCC(=O)[C@@H](CCC3=CC(=O)C=CC3=O)[C@@H]1CCC2=O	10 µM (inactive)	18.8 µM (inactive)	17.9 µM (inactive)	15.5 µM (inactive)	14.2 µM (inactive)	17.8 µM (inactive)	23.8 µM (inactive)	5.21 µM (inactive)	13.2 µM (inactive)	38 µM (inactive)	17.1 µM (inactive)	16.1 µM (inactive)	1.6 µM (inactive)	26.1 µM (inactive)	41.5 µM (inactive)	5.48 µM (inactive)	18.2 µM (inactive)	16 µM (inactive)	14.3 µM (inactive)
Cc1c2ncccc2c(C)c2c1[nH]c1ccc(O)cc12	2.91 µM (inactive)	2.56 µM (inactive)	7.23 µM (inactive)	4.59 µM (inactive)	4.54 µM (inactive)	4.89 µM (inactive)	4.93 µM (inactive)	0.478 µM (active)	1.31 µM (inactive)	5.27 µM (inactive)	6.28 µM (inactive)	4.35 µM (inactive)	2 µM (inactive)	3.38 µM (inactive)	6.61 µM (inactive)	4.07 µM (inactive)	2.8 µM (inactive)	12.8 µM (inactive)	3.35 µM (inactive)
